Measured values reported in patent publication US9980936B2, “BH4 antagonists and methods related thereto” (Emory University, priority 2014, dated 2018).
“Also recorded” adds a separate entry of the source. Read-outs that look alike come from different tables or passages of the source.

Experiments:
[1] = system: Bcl2 and Bax in H460 xenograft tumor tissues; experiment: QD-IHF of Bcl2 and Bax conformational change in tumor tissues; format: in vivo, mice; conditions: 14 days
Source text: Quantum dot-based immunohistofluorescence (QD-IHF) technology has recently been developed as a valuable tool for simultaneous and concurrent immunostaining of multiple biomarkers in formalin-fixed paraffin-embedded (FFPE) tissues, thereby allowing for quantification of several biomarkers simultaneously on the same tissue slide. To determine whether BDA-366 induces Bcl2 conformation change by exposure of its BH3 domain in tumor tissues and whether the BH3 domain-exposed Bcl2 activates Bax, conformational changes in both Bcl2 and Bax were simultaneously analyzed by QD-IHF on the same tissue slide.

[2] = system: H1299 cells overexpressing WT or Bcl2 single site mutants; experiment: cell survival of H1299 cells overexpressing exogenous WT or single site Bcl2 mutants; format: cell-based
Source text: (§1) A panel of Bcl2 mutants were generated within the BH4 domain at the specific residues that were identified by the initial docking simulations, including D10A, N11A, R12A, E13A, M16A, K17A, H20A and D31A Bcl2 mutants. A compound Bcl2 mutant D10A/N11A/R12A/E13A (AAAA) was created. Recombinant proteins of these mutants were generated for BDA-2/Bcl2 binding analysis using a competitive fluorescence polarization. […] Second, WT and all Bcl2 mutants were exogenously overexpressed in H1299 cells that express undetectable levels of endogenous Bcl2.

[3] = system: human lung cancer cell lines; experiment: sensitivity of lung cancer cell lines versus ABT-737; format: cell-based
[4] = system: wild type (WT) and Bax knockout (Bax−/−) MEF cells; experiment: apoptotic effect on WT and Bax knockout MEF cells; format: cell-based
Experimental: (§2) To further determine whether Bax is important for BDA-2 induction of apoptosis, the apoptotic effect of BDA-366 was tested on wild type (WT) and Bax knockout (Bax−/−) MEF cells. […] To test whether BDA-2/BH4 binding affects the IP3R/Bcl2 interaction and Ca2+ release, H460 cells were treated with increasing concentrations of BDA-366 for 24 h.

H460 cells [5] = experiment: SRB cell growth assay, combination with mTOR inhibitor; format: cell-based, human; conditions: BDA-366 100 nM, RAD001 1 nM, alone or in combination, 72 hr
Experimental: Cell growth was analyzed by sulforhodamine B (SRB) colorimetric assay.

SCLC cell lines = experiment: growth of SCLC cell lines; format: cell-based
[6] = system: lung cancer xenografts derived from H460 cells; experiment: H460 lung cancer xenografts
Experimental: Each group included 8 mice. Tumor volume was measured once every 2 days. After 14 days, the mice were sacrificed and the tumors were removed and analyzed.
To assess whether BDA-366 induced suppression of tumor growth via apoptosis in vivo, representative samples from harvested tumor tissues were analyzed by immunohistochemistry (IHC) for active caspase 3 or TUNEL assat.

Bcl-XL = Bcl-XL (Homo sapiens, UniProt Q07817); experiment: binding to other Bcl2 family members
human lung cancer cells = experiment: screening of cytotoxicity by sulforhodamine B (SRB) assay; format: cell-based; conditions: among top 200 docked small molecules
Source text: A library containing approximately 300,000 small molecules from the National Cancer Institute (NCI) was used to dock the structural pocket of the BH4 domain. The small molecules were ranked according to their energy scores. The top 200 small molecules were selected for screening of cytotoxicity in human lung cancer cells by sulforhodamine B (SRB) assay.

in vivo = experiment: in vivo
Experimental: (§3) In order to define the appropriate doses for in vivo experimentation, the maximum tolerated dose (MTD) was determined. Nu/Nu nude mice were treated in groups of 6 per dose level with increasing doses of BDA-366 (10-50 mg/kg/d) intraperitoneally (i.p.) for up to 12 days. […] Standard single-dose MTD treatment in normal C57BL/6 mice were measured. […] 10% of single dose MTD can usually be considered as the maximum therapeutic dose (30˜40 mg/kg) for continuous treatment.

[7] = system: NSCLC cell lines H157, Calu-1, H358, H460, H1975 and SCLC cell lines DMS53, DMS153, H146, H69; experiment: cell growth (SRB) and apoptosis (Annexin V/PI), lines with higher Bcl2; format: cell-based; conditions: relatively higher levels of Bcl2
Experimental: The effect of BDA-2 on cell growth and apoptosis was measured by SRB assay and Annexin V/PI binding, respectively, in both small cell lung cancer (SCLC) and non-small cell lung cancer (NSCLC) cell lines that express various levels of endogenous Bcl2.

H460 cells [8] = experiment: IP3R/Bcl2 interaction and Ca2+ release; format: cell-based; conditions: increasing concentrations, 24 h
Experimental: as §2

[9] = system: Bcl2 ΔBH1 deletion mutant protein; experiment: fluorescence polarization assay with fluorescent Bak peptide; format: binding
Experimental: (§4) Purified recombinant WT and a panel of Bcl2 BH domain deletion mutant proteins (i.e. ΔBH1, ΔBH2, ΔBH3 and ΔBH4) were commercially obtained from ProteinX Lab. To directly measure BDA-2/Bcl2 binding, a fluorescence polarization assay with a fluorescent Bak peptide (5′-[…]) was performed.

Bcl2 = Bcl2 (Homo sapiens, UniProt P10415); experiment: as above; format: binding
Experimental: as §4

[10] = system: Bcl2 ΔBH2 deletion mutant protein; experiment: as above; format: binding
Experimental: as §4

[11] = system: Bcl2 ΔBH3 deletion mutant protein; experiment: as above; format: binding
Experimental: as §4

[12] = system: BH4 domain deficient Bcl2 mutant protein (ΔBH4); experiment: as above; format: binding
Experimental: as §4

[13] = system: H1299 cells overexpressing Bcl2 AAAA mutant; experiment: cell survival of H1299 cells overexpressing compound Bcl2 AAAA mutant; format: cell-based
Source text: as §1

[14] = Experimental: as §3
[15] = molecular target: purified, human Bcl2 protein (Homo sapiens, UniProt P10415); experiment: in vitro cell-free Bcl2 conformational change assay (IP with anti-Bcl2/BH3 domain antibody); format: biochemical
Experimental: To test whether BDA-2 directly induces Bcl2 conformational change, an in vitro cell-free assay was employed. Purified recombinant Bcl2 protein was incubated with increasing concentrations of BDA-2 in lysis buffer, followed by immunoprecipitation (IP) using the anti-Bcl2/BH3 domain antibody.

[16] = system: D10A, N11A, R12A, E13A, M16A, K17A, H20A and D31A Bcl2 mutants; experiment: competitive fluorescence polarization, BH4 single-site mutants; format: binding; conditions: single mutation at each individual residue
Source text: as §1

[17] = 10, 20, 30 mg/kg/d i.p., 14 days

Chain of Bcl-XL (Q07817 whole entry, species assumed): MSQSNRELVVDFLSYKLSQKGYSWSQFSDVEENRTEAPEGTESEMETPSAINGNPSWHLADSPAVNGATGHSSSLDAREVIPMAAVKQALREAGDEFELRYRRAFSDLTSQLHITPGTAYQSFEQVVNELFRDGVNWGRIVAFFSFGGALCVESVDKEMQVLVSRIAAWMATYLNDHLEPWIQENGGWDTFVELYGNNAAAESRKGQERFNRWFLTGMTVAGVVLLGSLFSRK
Chain of Bcl2 (P10415 whole entry): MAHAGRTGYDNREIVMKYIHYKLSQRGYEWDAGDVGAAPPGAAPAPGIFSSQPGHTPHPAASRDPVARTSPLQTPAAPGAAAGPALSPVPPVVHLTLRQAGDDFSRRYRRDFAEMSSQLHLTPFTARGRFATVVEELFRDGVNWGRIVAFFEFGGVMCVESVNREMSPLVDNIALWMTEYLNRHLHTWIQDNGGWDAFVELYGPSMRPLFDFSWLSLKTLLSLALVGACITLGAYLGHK
Chain of purified, human Bcl2 protein (P10415 whole entry, the tested form may be a part): as the sequence (P10415 whole entry) above

Compound: CCN(CC)CC(O)CNc1ccc(NCC2CO2)c2c1C(=O)c1ccccc1C2=O (stereo not drawn) [BDA-366, 1-((3-(diethylamino)-2-hydroxypropyl)amino)-4-((oxiran-2-ylmethyl)amino)anthracene-9,10-dione]
- 6A7 binding to Bax (active form of Bax) in tumor tissues [1]: increased level of 6A7 binding to Bax
- exposure of the Bcl2 BH3 domain in tumor tissues [1]: dose-dependent exposure of the Bcl2 BH3 domain in tumor tissues
- total Bcl2 and Bax levels in tumor tissues [1]: no significant changes in total Bcl2 and Bax levels
- sensitivity of cells overexpressing WT or single site Bcl2 mutants [2]: enhanced sensitivity
- sensitivity of most human lung cancer cell lines relative to ABT-737 [3]: more sensitive to BDA2 than ABT-737
- resistance of Bax deficient MEF cells compared to WT MEF cells [4]: significantly resistant
- cell growth inhibition (H460 cells [5]): partially inhibited lung cancer cell growth
- growth of SCLC cell lines (SCLC cell lines): efficiently suppressed growth of SCLC cell lines
- body weight ([6]; 30 mg/kg): Weight loss was observed
- neutrophils, lymphocytes, RBC and platelets in blood ([6]; 30 mg/kg): no decreases in neutrophils, lymphocytes, red blood cells (RBC) and platelets (PLT)
- apoptosis in tumor tissues (active caspase 3 IHC or TUNEL) [6, 17]: dose-dependent apoptosis induction
- tumor growth / repression of lung cancer in vivo [6, 17]: potently suppress lung cancer growth in vivo; also recorded: dose-dependent repression of lung cancer in vivo
- tumor growth / repression of lung cancer in vivo ([6]; 10, 20, 30 mg/kg/d i.p., 14 days, listed as BDA-2): represses lung cancer in vivo
- histopathology of harvested normal tissues ([6]; 10-30 mg/kg/d): no evidence of normal tissue toxicities
- kidney (BUN) and liver (ALT and AST) function ([6]; mouse, in vivo): in the normal range
- binding to Bcl-XL (Bcl-XL): failed to bind
- binding to Bcl-XL (Bcl-XL; listed as BDA-2): did not bind
- activity against human lung cancer cells (human lung cancer cells): most potent activity
- time to death of mice (in vivo; C57BL/6, mouse, 400 mg/kg): 4 days
- MTD (in vivo; C57BL/6, mouse, maximum therapeutic dose for continuous treatment (10% of single dose MTD)): 30 to 40 mg/kg
- MTD (in vivo; C57BL/6, mouse, single dose MTD): 300 to 400 mg/kg
- ALT and AST (in vivo; mouse, 400 mg/kg): significantly enhanced
- pathological analysis for all organs (in vivo; mouse, 400 mg/kg): microsteatosis in the liver and atrophic white pulp in the spleen
- weight loss or other toxicities (hematologic, liver and kidney functions) (in vivo; mouse, ip, 300 mg/kg): did not cause weight loss or other toxicities
- sensitivity of cells [7]: more sensitive
- Bcl2/IP3R binding (H460 cells [8]): reduced Bcl2/IP3R binding
- Ca2+ release (H460 cells [8]): increased Ca2+ release
- binding after deletion of BH1 [9]: did not significantly affect its BDA-2 binding
- Ki (Bcl2; fluorescent Bak peptide, WT Bcl2): 3.3 ± 0.73 nM
- inhibitory constant (Ki) value (Bcl2; purified Bcl2 protein, BH4 domain): nanomolar level
- binding after deletion of BH2 [10]: did not significantly affect its BDA-2 binding
- binding after deletion of BH3 [11]: did not significantly affect its BDA-2 binding
- binding to ΔBH4 Bcl2 [12]: failed to bind
- cell survival on exposure, AAAA mutant overexpressed [13]: significantly prolonged cell survival
- time within which dose was uniformly lethal ([14]; 40 mg/kg/d i.p.): ≤ 8 days
- time within which dose was uniformly lethal ([14]; 50 mg/kg/d i.p.): up to 12 days
- tolerability ([14]; 10 to 30 mg/kg/d i.p., up to 12 days): tolerable with no death recorded
- direct induction of Bcl2 conformational change (BH3 exposure) [15]: enhanced the ability of the Bcl2/BH3 domain-specific antibody to bind Bcl2
- binding to single-site Bcl2 mutants [16]: did not significantly reduce Bcl2's ability to bind BDA-2
